# Experimental data: the supplement of paper PMC10307832
# Columns and labels:
# Experiment in all cases: relative viability (nuclei count vs DMSO), 5 days (fraction); higher = more cells survive
# Temozolomide + Olaparib = compound: Cn1nnc2c(C(N)=O)ncn2c1=O [Temozolomide] + O=C(c1cc(Cc2n[nH]c(=O)c3ccccc23)ccc1F)N1CCN(C(=O)C2CC2)CC1 [Olaparib] (partner 8 µM)
# In short: (§1)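 Relative viability is defined as nuclei in treated wells over nuclei in vehicle wells. Duplicate plates were run and medians reported. Lung cancer cell lines in 1536-well plates were dosed by pin tool one day after seeding, with one drug or with a fixed anchor-drug dose plus five library-drug doses (not always all listed) in √10 steps, and nuclei were counted after 5 days.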
# [1] = compound: Cn1nnc2c(C(N)=O)ncn2c1=O [Temozolomide] + Cc1cc(Nc2cc(N3CCN(C)CC3)nc(Sc3ccc(NC(=O)C4CC4)cc3)n2)n[nH]1 [Tozasertib] (partner 0.1 µM)
# In short: as §1
# AZD5582 + Foretinib = compound: C[C@@H](C(=O)N[C@@H](C1CCCCC1)C(=O)N2CCC[C@H]2C(=O)N[C@@H]3[C@@H](CC4=CC=CC=C34)OCC#CC#CCO[C@@H]5CC6=CC=CC=C6[C@@H]5NC(=O)[C@@H]7CCCN7C(=O)[C@H](C8CCCCC8)NC(=O)[C@H](C)NC)NC [AZD5582] + COc1cc2c(Oc3ccc(NC(=O)C4(C(=O)Nc5ccc(F)cc5)CC4)cc3F)ccnc2cc1OCCCN1CCOCC1 [Foretinib] (partner 0.25 µM)
# In short: as §1
# AZD5582 + Pictilisib = compound: C[C@@H](C(=O)N[C@@H](C1CCCCC1)C(=O)N2CCC[C@H]2C(=O)N[C@@H]3[C@@H](CC4=CC=CC=C34)OCC#CC#CCO[C@@H]5CC6=CC=CC=C6[C@@H]5NC(=O)[C@@H]7CCCN7C(=O)[C@H](C8CCCCC8)NC(=O)[C@H](C)NC)NC [AZD5582] + CS(=O)(=O)N1CCN(Cc2cc3nc(-c4cccc5[nH]ncc45)nc(N4CCOCC4)c3s2)CC1 [Pictilisib] (partner 1 µM)
# In short: as §1
Cell Line,relative viability (Temozolomide + Olaparib; first compound 0.2 µM),relative viability (Temozolomide + Olaparib; first compound 0.6325 µM),relative viability (Temozolomide + Olaparib; first compound 2 µM),relative viability (Temozolomide + Olaparib; first compound 6.325 µM),relative viability (Temozolomide + Olaparib; first compound 20 µM),relative viability ([1]; first compound 0.2 µM),relative viability ([1]; first compound 0.6325 µM),relative viability ([1]; first compound 2 µM),relative viability ([1]; first compound 6.325 µM),relative viability ([1]; first compound 20 µM),relative viability (AZD5582 + Foretinib; first compound 0.001581 µM),relative viability (AZD5582 + Foretinib; first compound 0.005 µM),relative viability (AZD5582 + Foretinib; first compound 0.01581 µM),relative viability (AZD5582 + Foretinib; first compound 0.05 µM),relative viability (AZD5582 + Pictilisib; first compound 0.001581 µM),relative viability (AZD5582 + Pictilisib; first compound 0.005 µM),relative viability (AZD5582 + Pictilisib; first compound 0.01581 µM),relative viability (AZD5582 + Pictilisib; first compound 0.05 µM)
NCI-H358,0.706,0.732,0.631,0.545,0.351,0.0983,0.101,0.104,0.106,0.115,0.684,0.938,0.779,0.626,0.426,0.308,0.394,0.308
NCI-H2347,0.59,0.538,0.614,0.603,0.472,0.496,0.552,0.579,0.544,0.576,0.688,0.736,0.557,0.794,0.712,0.446,0.637,0.894
UMC-11,0.386,0.612,0.382,0.306,0.265,0.204,0.198,0.214,0.198,0.191,0.995,1.12,1.03,1.05,0.722,0.842,0.648,0.666
NCI-H2009,0.723,0.671,0.717,0.641,0.499,0.821,0.722,0.766,0.762,0.735,1.22,1.28,1.19,1.29,0.741,0.998,0.467,0.705
NCI-H1437,0.614,0.606,0.632,0.583,0.523,0.422,0.415,0.422,0.422,0.415,1.17,1.22,1.24,1.16,0.439,0.452,0.48,0.409
NCI-H647,0.721,0.616,0.5,0.176,0.0916,0.263,0.307,0.412,0.148,0.147,1.08,1.16,1.1,1.21,0.388,0.449,–,0.458
NCI-H1395,0.439,0.441,0.51,0.354,0.385,0.726,0.692,0.813,0.677,0.705,0.979,1.14,1.04,1.14,0.601,0.698,–,0.632
NCI-H1915,0.272,0.234,0.238,0.212,0.151,0.482,0.417,0.471,0.317,0.268,1.06,1.09,1.13,1.09,0.88,0.999,0.824,0.936
BEN,0.891,1.05,1.21,0.736,0.401,0.465,0.5,0.415,0.526,0.436,0.634,0.751,0.627,0.415,0.54,0.561,0.654,0.534
LC-2-ad,0.671,0.72,0.696,0.591,0.468,0.429,0.517,0.505,0.41,0.422,0.933,1.16,0.829,0.923,0.327,0.673,0.644,0.662
LXF-289,1.11,1.13,1.03,0.951,0.774,0.241,0.208,0.216,0.169,0.186,0.941,0.944,1.03,0.977,0.705,0.795,0.757,0.794
